Source: publication PMC10307885, “A Phase 1/2 trial of SRA737 (a Chk1 inhibitor) administered orally in patients with advanced cancer” (British Journal of Cancer, 2023)

Tested on: patients with advanced solid tumours
Assay: Cardiac safety: ECG (QTcF), troponin, echocardiogram
Format: in vivo, human
Procedure: Cardiac assessments included centrally-assessed serial ECGs in Cycle 1 used for evaluation of QTc. In addition, locally-read ECGs for safety assessment were also available for central assessment where clinically indicated. Troponin T or I assessments and echocardiogram were locally assessed.
Safety and response variables were summarized using descriptive statistics and PK parameters were determined using non-compartmental methods. A concentration-effect model was used to evaluate the relationship between plasma SRA737 concentrations and the mean change from baseline in QT interval corrected for heart rate using Fridericia’s formula (QTcF) in time-matched ECG measurements and PK samples collected on Day −7 to Day −4 and during Cycle 1.

In the case of `N#Cc1cnc(Nc2cc(NC[C@H]3CNCCO3)c(C(F)(F)F)cn2)cn1` [SRA737, (R)-5-((4-((morpholin-2-ylmethyl)amino)-5-(trifluoromethyl)pyridin-2-yl)amino)pyr azine-2-carbonitrile], the “largest LS mean ΔQTcF” value (800 mg QD, 2 h post dose on Cycle 1 Day 22, 90% confidence interval 11.53 to 22.13) is reported as 16.8 ms, the “cases of acute coronary syndrome (cardiac SAE)” value (800 mg SRA737) is reported as 1 case and the “cases of asymptomatic myocardial infarction (cardiac SAE)” value (800 mg SRA737) is reported as 1 case. For the same compound, the “cases of asymptomatic QT prolongation (cardiac SAE)” value (1000 mg SRA737) was 1 case, the “cases of cardiomyopathy (cardiac SAE)” value (1000 mg SRA737) was 1 case and the “cardiac serious adverse events evaluated to be possibly related to SRA737” value (all doses) was “Four”. For the same compound, the “subjects with treatment-emergent QTcF values >500 ms or ΔQTcF of >60 ms” value (central ECG monitoring) was “no individual subjects”, the “patients with > 10% absolute drop from baseline resulting in abnormal left ventricular ejection fraction” value (echocardiogram data, 83 evaluable patients, other than cardiomyopathy and myocardial infarction cases) was “no additional patients” and the “drop of left ventricular ejection fraction, one patient” value (echocardiogram performed outside the study) was “from 65 to 20–25%”. The “effects on heart rate, PR interval, or QRS duration” value (studied doses) was “no clinically relevant effects” and the proarrhythmic potential (therapeutic doses) was “no indication that SRA737 is proarrhythmic”.
